Target: T1, P2X purinoceptor 7 (Rattus norvegicus, UniProt Q64663)
T1 sequence (Q64663 whole entry): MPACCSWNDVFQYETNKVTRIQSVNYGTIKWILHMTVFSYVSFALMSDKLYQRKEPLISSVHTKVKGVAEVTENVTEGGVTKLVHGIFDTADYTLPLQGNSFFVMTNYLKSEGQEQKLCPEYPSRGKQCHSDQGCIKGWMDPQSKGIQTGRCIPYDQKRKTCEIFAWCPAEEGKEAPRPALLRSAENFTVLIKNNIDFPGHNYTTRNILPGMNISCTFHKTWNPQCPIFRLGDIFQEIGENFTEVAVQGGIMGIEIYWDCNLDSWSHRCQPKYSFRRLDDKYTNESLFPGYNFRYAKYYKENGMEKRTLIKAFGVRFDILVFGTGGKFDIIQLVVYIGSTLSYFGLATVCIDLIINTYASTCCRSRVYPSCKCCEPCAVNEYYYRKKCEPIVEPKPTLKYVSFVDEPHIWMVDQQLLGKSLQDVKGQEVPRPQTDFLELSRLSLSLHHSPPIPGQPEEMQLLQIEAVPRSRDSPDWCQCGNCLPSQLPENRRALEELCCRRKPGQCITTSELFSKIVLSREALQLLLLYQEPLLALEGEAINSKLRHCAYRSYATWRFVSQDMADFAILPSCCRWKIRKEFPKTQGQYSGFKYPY
Experiment: Antagonist activity at rat P2X7 receptor expressed in 1321N1 cells assessed as inhibition of Bz-ATP-induced Ca2+ flux after 30 mins by FLIPR assay

For `C[C@H]1Cn2c(nnc2-c2cnccn2)C(=O)N1Cc1ccccc1` [US10047092, 79], the IC50 was > 10 µM.

From BindingDB's records for doi:10.1016/j.bmcl.2015.12.052 (Janssen Research and Development, 2016)
